Here are results for five substances from US10632172B2, “Injectable self-assembling antibacterial peptide hydrogels” (New Jersey Institute of Technology, priority 2018, dated 2020).

Several values for one entry are separate records, joined by “and”; a condition that tells them apart may be missing. Identical values can stand only once. Entries after “also recorded” stand apart in the source; their conditions may differ. A value given as a limit tells only on which side of the number the result lay.

For series [1] the following is noted: cited from earlier work.
Series [2] in a line: Hydrogel formation after addition of 10xPBS to 2% (w/v) peptide solution in 298 mM sucrose. It is filed as physicochemical. Conditions: 2% (w/v) in 298 mM sucrose, 10xPBS pH 7 added 1:9. The method, then:
In one example, after purification and lyophilization, the peptides are dissolved in 298 mM sucrose solution to prepare 2% (w/v) solutions. After the addition of 10×PBS (pH 7) to the peptide solution (in a 1:9 volumetric ratio), hydrogels form within seconds. Biofilms of the gram-negative bacteria Pseudomonas putida are grown on agar plates and CASP solutions are applied on top of established biofilms to test their ability to disrupt the bacterial colony. Cationic amphiphilic peptide nanofibers show noticeable bactericidal effect on biofilms. This effect is correlated with the terminal charge on the cationic nanofibers, consistent with initial hypothesis contained herein that higher terminal charge facilitates the association of the peptide nanofibrils with the bacterial cell membrane. The effect of the antibacterial hydrogel is localized on the biofilm.
In this example, a series of CASPs was explored. The series of CASPs were synthesized through solid-phase peptide synthesis and verified by mass spectrometry as shown in FIGS. 3A-3D. After purification and lyophilisation, the peptides were dissolved in 298 mM sucrose solution to prepare 2% (w/v) solutions. After the addition of 10×PBS (pH 7) to the peptide solution (in a 1:9 volumetric ratio), CASP-K2 through CASP-K6 formed hydrogels within seconds.

Series [3] has as its system Pseudomonas aeruginosa PAO1. The series can be described thus: Colony disruption on agar plates (inhibition zones, SEM). In kind it is cell-based. Conditions: P. aeruginosa PAO1 on agar, peptide hydrogels/solutions applied, overnight. The method, then: Colonies of the gram-negative bacteria Pseudomonas aeruginosa PAO1 were grown on agar and CASP solutions were applied to assess their colony-disruption ability (FIGS. 9A-9E). Cationic amphiphilic peptide nanofibers show noticeable bactericidal effect. This effect was correlated with the terminal charge on the cationic nanofibers (FIGS. 9C-9D), consistent with the hypothesis that a greater terminal charge facilitates the association of the peptide nanofibrils with the bacterial cell membrane.
To test the efficacy of CASPs against bacterial colonies, Pseudomonas aeruginosa (PAO1) were cultured on agar plates and peptide hydrogels/solutions were placed on these bacteria cultures during the exponential growth phase to evaluate the antibacterial properties. The experiment to test antibacterial activity of the peptides was carried out over 4 days. On day 1, an agar plate was streaked with the bacteria using an inoculating loop. The streaked plate was then kept in an incubator to allow for bacterial growth overnight. Day 2 consisted of inoculating one colony of bacteria from the streaked plate into a glass tube filled with 5 mL of the Luria-Bertani (LB) broth. The tube is then set aside to allow for the colony to grow overnight in the LB broth. The following day the agar plates were labeled with the type of bacteria, concentration used, treatment being tested, and the date. […]

Series [4] can be described thus: Rheology of CASP hydrogels/solutions (strain sweep, shear recovery). In kind it is physicochemical. Conditions: for storage modulus (G') at 1% strain: 2% w/v hydrogels/solutions. The method, then:
For rheology, 2% peptide hydrogel was transferred between a plate and a 4 mm parallel plate geometry with a gap of 350 μm, on a Malvern Kinexus Ultra+rheometer. Strain sweep (0.1-100% strain at 1 Hz) and shear recovery (1% strain at 1 Hz for 5 min, 100% strain at 1 Hz for 1 min, and 1% strain at 1 Hz for 5 min) were carried out.

A short description of series [5]: In vivo subcutaneous implantation of hydrogel, histology. Also on record: species or system Wistar rats. The method, then:
To test the in vivo persistence of the peptide, Wistar rats were subcutaneously injected with 200 μL CASP-K6 hydrogel (2% w/v). Because of the thixotropic nature of the hydrogel, it reconstituted post-injection in the subcutaneous pocket. At prescribed time intervals (1, 3, and 7 days), the rats were sacrificed and the dorsal skin covering the implant was removed for histological examination. Used was hematoxylin and eosin (H&E) FIGS. 15A-15B, and Masson's trichrome staining FIGS. 15C-15D) to analyze the tissue sections.
For in vivo subcutaneous implantations, NJIT-Rutgers animal care facility was used. Injected was ˜200 μL CASP-K6 hydrogels in the subcutaneous pocket (dorsal aspect) of female Wistar rats (˜250 g, Charles River) (four implants (n=4) per rat). At the specified time points (1 day, 3 day, and 7 day), the animals were sacrificed and regions around the implant were excised, fixed, and processed. Hematoxylin and eosin (H&E) and Masson's trichrome staining was used for histologic analysis.

Series [6] deals with NIH 3T3 fibroblasts. The series can be described thus: In vitro cytocompatibility (LIVE/DEAD viability/cytotoxicity kit). In kind it is cell-based. Conditions: 0.002% peptide in media, day 3. The method, then:
For in vitro cytocompatibility tests, cultured were NIH 3T3 fibroblasts in DMEM supplemented with 10% FBS and 1× penicillin-streptomycin in T75 flasks. After the fibroblasts reached confluency, they were seeded in a 96-well plate at 2,500 cells/well. 0.002% CASP-K6 (n=6) and a control (media with sucrose and phosphate-buffered saline (PBS), n=6) were tested. For the former, the peptide was supplemented in the media, and for the control, 298 mM sucrose and PBS was supplemented to the media. The sucrose and PBS supplemented in the media control corresponded to the quantities required to formulate CASP-K6. Media was changed daily for 3 days and cytocompatibility was assessed on day 3 using a LIVE/DEAD viability/cytotoxicity kit (images were taken on a Nikon Eclipse Ti—S inverted fluorescent microscope). A NIH ImageJ was used to quantify cell viability.

For LL-37: natural antimicrobial peptide, the “enzymatic degradation in vivo” value in series [1] is given as “susceptible to enzymatic degradation in vivo within a time period of hours”.
For “KKKKKKKKSLSLSLSLSLSLKKKKKKKK (CASP-K8) [cationic amphiphilic self-assembling peptide]”, in series [2], the hydrogel formation result is reported as “failed to form a gel; also recorded: remained in solution”. For the same substance, the “disruption of bacterial colonies / antibacterial activity” value in series [3] is reported as “very effective in disrupting the bacterial layer”. Also, the “storage modulus (G') at 1% strain” value in series [4] is recorded as around 30 Pa.
With “KKKKSLSLSLSLSLSLKKKK (CASP-K4) [cationic amphiphilic self-assembling peptide]”, in series [4], the “storage modulus (G') at 1% strain” value is recorded as around 430 Pa.
Turning to “Ac-KKKKKKSLSLSLSLSLSLKKKKKK-NH2 [CASP-K6]”, in series [5] (rat, in vivo, sc), the “in vivo persistence” value was “persists in vivo” and the “in vivo persistence of subcutaneous implant (remained observable)” value is “at least 7 days”. Moreover, the “local/systemic toxicity or mortality” value in series [5] (subcutaneous implants in rats, up to 7 days) is “did not induce any local/systemic toxicity or mortality”. Besides, the “disruption of bacterial colonies / antibacterial activity” value in series [3] is recorded as “very effective in disrupting the bacterial layer; also recorded: comparable antibacterial activity”. Also, in series [4], the “storage modulus (G') at 1% strain” value was around 210 Pa. Besides, the “storage modulus of hydrogel (rheometry)” value in series [4] (strain not stated) is > 100 Pa and > 200 Pa. In series [4] (strain sweep), the “shear strain at which the gel liquefied (G'<G'')” value is on record as above 30 % strain. For the same substance, in series [6], the “toxicity with respect to mammalian cells (cytocompatibility)” value is “low toxicity”.
Turning to “KKSLSLSLSLSLSLKK (CASP-K2) [cationic amphiphilic self-assembling peptide, previously reported as a multifunctional scaffold]”, the “storage modulus (G') at 1% strain” value in series [4] is around 620 Pa.
